Reference: PubChem BioAssay (NCI)
Several values for one entry are separate records, joined by “and”; a condition that tells them apart may be missing. Equal entries are not always repeated.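 Briefly, cells in 96-well plates were exposed to five compound concentrations for 48 h, and endpoints were estimated by linear interpolation. GI50 is the concentration that inhibits growth by half. TGI: total growth inhibition.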

Legend:
Test in all cases: DTP human tumour cell line panel, 48 h
[1] = test system: HOP-62 NSCLC
[2] = test system: K-562 leukemia
[3] = test system: OVCAR-4 ovarian
[4] = test system: OVCAR-3 ovarian
[5] = test system: M14 melanoma
[6] = test system: HT29 colon
[7] = test system: NCI-H522 lung
[8] = test system: SK-MEL-28 melanoma
[9] = test system: PC-3 prostate
[10] = test system: IGROV1 ovarian

Structure (SMILES) | TGI [1] [µM] | TGI [2] | TGI [3] | TGI [4] [µM] | TGI [5] | TGI [6] | TGI [7] [µM] | TGI [8] | TGI [9] | TGI [10] | GI50 [1] [µM] | GI50 [2] [µM] | GI50 [9] [µM] | GI50 [4] [µM] | GI50 [5] [µM] | GI50 [6] [µM] | GI50 [7] [µM] | GI50 [10] [µM]
[O-]/N=[N+](/[O-])C1CCCCC1=[N+]1CCOCC1 (configuration not stated) | > 100 | > 100 µM | > 100 µM | > 100 | > 100 µM | > 100 µM | > 100 | > 100 µM |  |  |  |  |  |  |  |  |  | 
COC(=O)Oc1nn(C(=O)OC)c(=O)c2ccccc12 | > 100 | > 100 µM |  | > 100 | > 100 µM |  | > 100 | > 100 µM | > 100 µM | > 100 µM |  |  |  |  |  |  |  | 
OCC1OC2c3ccccc3COC2C1OCc1ccccc1 (configuration not stated) |  | > 100 µM | > 100 µM | > 100 | > 100 µM | > 100 µM | > 100 | > 100 µM |  | > 100 µM |  |  |  |  |  |  |  | 
COc1cc2c(c(O)c1Cl)C(=O)c1c(O)cc(C[C@H](C)O)cc1[C@H]2[C@H]1c2cc(C[C@H](C)O)cc(O)c2C(=O)c2c1cc(OC)c(Cl)c2O |  | 75 µM and > 100 µM | 75 µM and > 100 µM |  | 75 µM and > 100 µM | 75 µM and > 100 µM |  | 75 µM and > 100 µM | 75 µM and > 100 µM | 39 µM and > 100 µM |  |  |  |  |  |  |  | 
COC(=O)Cc1c([C@@]2(C)CCCC(C)(C)C2)ccc2c1C(=O)OC2 |  | 19.4 µM |  | 20.7 | 26.1 µM | 28.4 µM | 19.8 | 34.9 µM |  | 47.5 µM |  |  |  |  |  |  |  | 
Nc1nc(NCCOCP(=O)(O)O)c([N+](=O)[O-])c(=O)[nH]1 | > 100 | > 100 µM |  | > 100 | > 100 µM | > 100 µM | > 100 | > 100 µM |  | > 100 µM |  |  |  |  |  |  |  | 
CCC12CCCN(Cc3ccccc3)C1c1c(n(C)c3ccccc13)C(CO)C2 (configuration not stated) | 73.6 | 107 µM |  | 90.7 |  | 72.2 µM | 66.7 | 150 µM |  | 218 µM |  |  |  |  |  |  |  | 
CN1C(=O)CC2(C)c3cc(O)cc(Br)c3N(C)C12 (configuration not stated) | > 100 | > 100 µM |  | > 100 | > 100 µM | > 100 µM | > 100 | > 100 µM |  | > 100 µM |  |  |  |  |  |  |  | 
COC(=O)[C@H](CC(C)C)NC(=O)[C@H](Cc1ccccc1)N1CC2C=CC1C2 (some centres not stated) | > 100 | > 100 µM | > 100 µM | > 100 | > 100 µM | > 100 µM | > 100 | > 100 µM |  | > 100 µM |  |  |  |  |  |  |  | 
COc1cccc(C=O)c1C(=O)c1cc(O)ccc1O | > 100 |  | 35.7 µM | 45.5 | 35 µM | > 76.3 µM |  | > 61.4 µM |  | > 62.5 µM |  |  |  |  |  |  |  | 
COc1cc2c(cc1OC)C(C#N)N(C(=O)c1ccccc1)C=C2OC(=O)c1ccccc1 (configuration not stated) | 35.2 | > 100 µM |  | 47.4 | > 100 µM | > 100 µM | 39.2 | 58.1 µM |  | 50.2 µM |  |  |  |  |  |  |  | 
O=C(COc1ccccc1Cl)N1N=C(c2ccccc2)CC1(O)c1ccccc1 (configuration not stated) | 28.5 | 54.9 µM | 23.4 µM | 33.6 | 31.9 µM | 30.7 µM | > 100 | 31.7 µM |  | 55.7 µM |  |  |  |  |  |  |  | 
O=C1C=C(Nc2ccccc2C(=O)CC(=O)C(=O)Nc2ccc(Cl)cc2)c2ccccc2C1=O | 44.5 | 40.9 µM | 37 µM | 9.29 | 24.1 µM | > 100 µM | 26.1 | 35 µM |  | > 88.5 µM |  |  |  |  |  |  |  | 
Cc1cc(=O)[nH]c(CNC(=O)c2ccc3ccccc3c2)n1 | > 100 | > 100 µM | > 100 µM | > 100 | > 100 µM | > 100 µM | > 100 | > 100 µM |  | > 100 µM |  |  |  |  |  |  |  | 
CC(C)(C)N/N=C(\C(=O)Nc1cccc(Cl)c1)C1C(=O)Nc2ccccc2S1=O (configuration not stated) | > 100 |  | > 100 µM | > 100 | > 100 µM | > 100 µM | > 100 | > 100 µM |  | > 100 µM |  |  |  |  |  |  |  | 
Cn1c(-c2ccc(-c3cc(-c4cccs4)c(-c4cccs4)n3C)cc2)cc(-c2cccs2)c1-c1cccs1 | > 100 | > 100 µM | > 100 µM |  | > 100 µM | > 100 µM |  | > 100 µM | > 100 µM | > 100 µM |  |  |  |  |  |  |  | 
COC(=O)[C@H]1COC(=S)N1C(=O)[C@@H](C)[C@H](O)C(C)C | > 100 | > 100 µM | > 100 µM | > 100 | > 100 µM | > 100 µM |  | > 100 µM |  | > 100 µM |  |  |  |  |  |  |  | 
COC(=O)c1cc(NC(=O)c2cc(NC(=O)c3cc([N+](=O)[O-])n(C)c3)cn2C)cn1C | > 100 | > 100 µM |  | > 100 | > 100 µM | 31 µM | > 100 |  | > 100 µM | > 100 µM | 6.4 | > 100 | > 100 | > 100 | 15.2 | 7.74 | 58.9 | > 100
